According to PubChem BioAssay (NCI):
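Five compound concentrations were applied to cells in 96-well plates for 48 hours; endpoints were derived by simple linear interpolation of the resulting dose-response curve. At the TGI there is no net growth.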

Experiments:
Test in all cases: growth of human tumour cells (NCI), 48 h
A549 NSCLC = system: A549 NSCLC
BT-549 breast = system: BT-549 breast
COLO 205 colon = system: COLO 205 colon
HCC-2998 colon = system: HCC-2998 colon
HCT-15 colon = system: HCT-15 colon
HOP-62 NSCLC = system: HOP-62 NSCLC
HOP-92 NSCLC = system: HOP-92 NSCLC
MALME-3M melanoma = system: MALME-3M melanoma
OVCAR-3 ovarian = system: OVCAR-3 ovarian
OVCAR-5 ovarian = system: OVCAR-5 ovarian
OVCAR-8 ovarian = system: OVCAR-8 ovarian
SK-MEL-5 melanoma = system: SK-MEL-5 melanoma
SK-OV-3 ovarian = system: SK-OV-3 ovarian
SN12C renal = system: SN12C renal
TK-10 renal = system: TK-10 renal
U251 CNS = system: U251 CNS
UACC-257 melanoma = system: UACC-257 melanoma
UO-31 renal = system: UO-31 renal
HS 578T breast = system: HS 578T breast
SK-MEL-2 melanoma = system: SK-MEL-2 melanoma

| SMILES | TGI (A549 NSCLC) [µM] | TGI (BT-549 breast) [µM] | TGI (COLO 205 colon) [µM] | TGI (HCC-2998 colon) [µM] | TGI (HCT-15 colon) [µM] | TGI (HOP-62 NSCLC) [µM] | TGI (HOP-92 NSCLC) [µM] | TGI (MALME-3M melanoma) [µM] | TGI (OVCAR-3 ovarian) [µM] | TGI (OVCAR-5 ovarian) [µM] | TGI (OVCAR-8 ovarian) [µM] | TGI (SK-MEL-5 melanoma) [µM] | TGI (SK-OV-3 ovarian) [µM] | TGI (SN12C renal) [µM] | TGI (TK-10 renal) [µM] | TGI (U251 CNS) [µM] | TGI (UACC-257 melanoma) [µM] | TGI (UO-31 renal) [µM] | TGI (HS 578T breast) [µM] | TGI (SK-MEL-2 melanoma) [µM] |
| --- | --- | --- | --- | --- | --- | --- | --- | --- | --- | --- | --- | --- | --- | --- | --- | --- | --- | --- | --- | --- |
| COc1ccc(C2Oc3c(cccc3-c3c(-c4ccc(O)cc4)oc4cc(O)cc(O)c4c3=O)C(=O)C2O)cc1O (stereo not drawn) | > 100 | > 100 | > 100 | > 100 | > 100 | > 100 | > 100 | > 100 | > 100 | > 100 | > 100 | > 100 | > 100 | > 100 | > 100 | > 100 | > 100 | > 100 | – | – |
| O=c1[nH]nc(-c2ccccc2)n1-c1cccc([N+](=O)[O-])c1 | > 100 | – | > 100 | > 100 | > 100 | > 100 | > 100 | > 100 | > 100 | > 100 | > 100 | > 100 | > 100 | > 100 | > 100 | > 100 | > 100 | > 100 | > 100 | > 100 |
| CC(=O)c1c2c(cc3c1CC1(Cc4cc5c(cc4C1)C(=O)CCC5)C3)CCCC2 (stereo not drawn) | > 88.2 | – | 21.7 | 97.9 | 19.3 | 43.4 | 40.1 | > 100 | 54.3 | > 100 | > 80.6 | 7.38 | > 100 | > 100 | > 100 | > 100 | 15.4 | > 90.6 | > 88.3 | 7.76 |
| CO[C@@H]1C[C@H]2[C@@H]3CC[C@H]([C@H](C)COC(C)=O)[C@@]3(C)CC[C@@H]2[C@@]2(C)CC[C@H]3C[C@]312 | > 100 | – | > 100 | > 100 | > 100 | > 100 | > 100 | > 100 | > 100 | > 100 | > 100 | > 100 | – | > 100 | > 100 | > 100 | > 100 | > 100 | > 100 | – |
| CC(C)(C)[Si](C)(C)OCCc1ccccc1C1CC2(S(=O)(=O)c3ccccc3)ON1CC2S(=O)(=O)c1ccccc1 (stereo not drawn) | > 100 | > 100 | > 100 | > 100 | – | > 100 | – | – | > 100 | > 100 | > 100 | > 100 | > 100 | > 100 | > 100 | > 100 | > 100 | > 100 | > 100 | > 100 |
| CCOC(=O)C1=C(O)C(=O)c2ccoc2C1=O | > 100 | – | > 100 | > 100 | > 100 | > 100 | > 100 | > 100 | > 100 | > 100 | > 100 | > 100 | > 100 | > 100 | > 100 | > 100 | > 100 | > 100 | – | > 100 |
| COC1(OC)N=C(N)C2(C#N)C(C)=C3NCN(C)N=C3C12C#N (stereo not drawn) | > 100 | – | > 100 | > 100 | > 100 | > 100 | > 100 | > 100 | > 100 | > 100 | > 100 | > 100 | > 100 | > 100 | > 100 | > 100 | > 100 | > 100 | > 100 | > 100 |
| Cc1cc2c(nn1)CCc1c-2no[n+]1[O-] | > 100 | > 100 | > 100 | > 100 | > 100 | > 100 | – | > 100 | > 100 | > 100 | > 100 | > 100 | > 100 | > 100 | > 100 | > 100 | > 100 | > 100 | > 100 | > 100 |
| COc1ccc(C(OCC2OC3(COC(c4ccccc4)(c4ccc(OC)cc4)c4ccc(OC)cc4)C(Oc4nc(=O)ccn43)C2O)(c2ccccc2)c2ccc(OC)cc2)cc1 (stereo not drawn) | > 100 | > 100 | > 100 | – | > 100 | > 100 | – | > 100 | > 100 | > 100 | > 100 | > 100 | > 100 | > 100 | > 100 | > 100 | > 100 | > 100 | 51.8 | > 100 |
| CC(=O)NC1CC(C(C)(C)NC(C)=O)CC=C1C (stereo not drawn) | > 100 | > 100 | > 100 | > 100 | > 100 | > 100 | > 100 | – | > 100 | > 100 | > 100 | > 100 | > 100 | > 100 | > 100 | > 100 | > 100 | > 100 | – | – |
| CC(=O)O[C@H]1CC[C@H]2[C@@H]3CCC4=C/C(=N/OCCN(C)C)CC[C@]4(C)[C@H]3CC[C@]12C | 25.6 | 27.2 | 8.18 | 19 | 12.8 | 27.5 | – | 28.6 | 26.7 | 31.9 | 28.1 | 9.62 | 24.6 | 33.7 | 27 | 26.4 | 21.1 | 28.1 | 34.1 | 26.9 |
| C=C1CCC2[C@](C)(CCC[C@]2(C)C(=O)O)[C@@H]1CCc1ccoc1 (stereo partly drawn) | > 100 | – | 33 | > 100 | > 100 | > 100 | – | > 100 | 66 | > 100 | – | 84.8 | > 100 | > 100 | 74.7 | – | 83.5 | > 100 | 80.3 | 85 |
| CCOC(=O)[C@@H]1ON2O[C@@H](OC3CCCCC3c3ccccc3)C[C@H]3OC(=O)[C@@H]1C32 (stereo partly drawn) | > 100 | – | > 100 | > 100 | > 100 | > 100 | > 100 | – | > 100 | > 100 | > 100 | > 100 | > 100 | > 100 | > 100 | > 100 | > 100 | > 100 | > 100 | – |
| CN(C(=S)Cc1ccc(Cl)c(Cl)c1)C1CCCC[C@@H]1N1CCCC1 (stereo partly drawn) | > 100 | > 100 | – | – | > 100 | > 100 | – | – | > 100 | > 100 | – | 33 | > 100 | > 100 | 89.2 | > 100 | – | 48.8 | – | > 100 |
| O=C(O/N=c1/ccc(=O)/c(=N\OC(=O)c2ccccc2)c1=O)c1ccccc1 | > 100 | – | > 100 | > 100 | > 100 | > 100 | > 100 | – | > 100 | > 100 | > 100 | > 100 | > 100 | > 100 | > 100 | > 100 | – | > 100 | > 100 | – |
| CC1CC(=NC2CCCCC2)Nc2ccccc2N1Cc1ccccc1 (stereo not drawn) | 16.5 | 18.7 | 17 | 11.5 | 19.1 | 20.3 | – | 8.8 | 20.4 | 24 | 19.8 | 6.77 | 23.4 | 22.1 | 25.2 | 19.9 | 13.2 | 13.3 | 19.7 | 24.9 |
| Cc1ccc2c(=O)c(-c3nnc(NC4CCCCC4)s3)c[nH]c2n1 | > 100 | > 100 | > 100 | – | > 100 | > 100 | – | > 100 | > 100 | > 100 | > 100 | > 100 | – | > 100 | > 100 | > 100 | > 100 | > 100 | > 100 | > 100 |
| COc1ccc(/C=C2\CCC(C)c3c2nc(N)c(C#N)c3-c2ccc(OC)c(OC)c2)cc1OC (stereo not drawn) | – | > 100 | 73.1 | – | > 100 | 9.95 | – | > 100 | > 100 | > 100 | > 100 | > 100 | > 100 | > 100 | > 100 | > 100 | 75.5 | > 100 | > 100 | > 100 |
| COc1ccc(/C=N/N=C(\N)NO)cc1F | 85.6 | – | > 100 | > 100 | > 100 | 72.5 | 76.2 | > 100 | > 100 | 97.2 | > 100 | 18.5 | > 100 | > 100 | > 100 | > 100 | > 100 | 39.6 | – | > 100 |
| Nc1n[nH]c2c(C(=O)Nc3ccc(Cl)cc3)c(N)n(N)c(=O)c12 | > 100 | > 100 | > 100 | > 100 | > 100 | – | – | > 100 | > 100 | > 100 | > 100 | > 100 | > 100 | > 100 | > 100 | > 100 | > 100 | > 100 | > 100 | > 100 |
| COc1cccc(/C=C2\SC(=S)N(/C=C3\C(=O)Oc4ccccc4C3=O)C2=O)c1O | > 100 | 55.6 | > 100 | 87 | > 100 | > 100 | – | > 100 | 95.7 | > 100 | > 100 | > 100 | > 100 | > 100 | – | > 100 | > 100 | 48.2 | 82.3 | > 100 |
| C=C1C2CC3CCC2C(OC(=O)c2ccccc2C(=O)O)C13 (stereo not drawn) | > 100 | – | > 100 | > 100 | > 100 | > 100 | > 100 | > 100 | > 100 | > 100 | > 100 | > 100 | > 100 | > 100 | > 100 | > 100 | > 100 | > 100 | > 100 | > 100 |
| CC(C)OC(=O)C1(C(C)C)CCc2ccc(C(=O)CCC(=O)O)cc21 (stereo not drawn) | > 100 | > 100 | > 100 | > 100 | > 100 | > 100 | – | > 100 | – | > 100 | > 100 | > 100 | > 100 | > 100 | > 100 | > 100 | > 100 | > 100 | > 100 | > 100 |
| COc1ccc2cc(CN3CCC(C4CCN(Cc5ccc6cc(OC)ccc6c5)CC4)CC3)ccc2c1 | > 100 | – | 2.98 | 0.367 | 3.04 | 22.7 | 8.91 | 4.51 | 9.74 | > 76.7 | 19.4 | 3.12 | > 72.8 | 24 | 6.18 | 8.41 | 3.88 | 9.78 | 11.8 | 12.7 |
| NCCCC(N=Cc1nc(-c2ccccc2)oc1O)C(=O)O (stereo not drawn) | > 100 | – | > 100 | > 100 | > 100 | > 100 | > 100 | > 100 | > 100 | > 100 | > 100 | > 100 | > 100 | > 100 | > 100 | > 100 | > 100 | > 100 | – | > 100 |
